What was measured:
[1] = tested on: multiresistant S. aureus reference strain “Norddeutscher Stamm”; test: Agar diffusion test according to Burkhardt against multiresistant S. aureus “Norddeutscher Stamm”; assay type: cell-based; conditions: for Size of inhibition halo: starting materials, S. aureus “Nord. Stamm”; for Inhibition halo: S. aureus “Norddeutscher Stamm”
Procedure: (§1) Methods: An agar diffusion test according to Burkhardt was performed (Burkhardt, F. (Ed.): Mikrobiologische Diagnostik, Georg-Thieme-Verlag Stuttgart, N.Y., 1992, p. 724). The test substances are applied to Sensi-Disc test plates (Becton Dickinson Microbiology Systems, Cockeysville, USA) in graduated concentrations. For testing, Mueller-Hinton II agar was employed in Stacker Petri dishes (Becton Dickinson Microbiology Systems, Cockeysville, USA). S. aureus strain ATCC 6538 was selected as a test strain. The seeding rate of this test strain was selected in such a way that densely arranged, nut non-confluent individual colonies developed after from 16 to 20 h of incubation. After drying the inoculated nutrient substrates, a maximum of 6 test plates is placed onto the agar surface with slight pressing. After 18+2 h of incubation at 36° C., the inhibition halos are measured. For internal quality control, the method was checked with S. aureus ATCC 25923.
Methods: The examination was effected by an agar diffusion test according to the method described in Example 13. As a test germ, the multiresistant S. aureus reference strain “Norddeutscher Stamm” (Smith Kline Beecham) was employed.

[2] = tested on: multiresistant coagulase-negative S. epidermidis strain 99847; test: Agar diffusion test according to Burkhardt against multiresistant S. epidermidis; assay type: cell-based
Procedure: as §1
Methods: The examination was effected by an agar diffusion test according to the method described in Example 13. As a test germ, the multiresistant coagulase-negative S. epidermidis strain 99847 isolated from patient material was employed.

[3] = tested on: S. aureus strain ATCC 6538; test: Agar diffusion test according to Burkhardt against S. aureus ATCC 6538; assay type: cell-based
Procedure: as §1

[4] = Antimicrobial activity in the preparation examples; conditions: result line of the preparation example; no test germ named

| Structure (SMILES) | Size of inhibition halo ([1]; 0.05 mg/disc) [mm] | Size of inhibition halo ([1]; 0.25 mg/disc) [mm] | Size of inhibition halo ([2]; starting materials, 0.25 mg/disc) [mm] | Inhibition halo ([1]; 50 μg) [mm] | Inhibition halo ([1]; 125 μg) [mm] | Inhibition halo ([1]; 250 μg) [mm] | Inhibition halo ([3]; 10 μg per test plate) [mm] | Inhibition halo ([3]; 50 μg per test plate) [mm] | Inhibition halo ([3]; 125 μg per test plate) [mm] | Inhibition halo ([3]; 250 μg per test plate) [mm] | Antimicrobial activity of the coupling product (in words) [4] | Inhibition halo ([2]; 125 μg) [mm] | Inhibition halo ([2]; 250 μg) [mm] | Inhibition halo ([1]; 10 μg) [mm] | Antimicrobial activity (in words) ([3]; summary of Table 1) | Inhibition halo ([2]; 50 μg) [mm] |
| --- | --- | --- | --- | --- | --- | --- | --- | --- | --- | --- | --- | --- | --- | --- | --- | --- |
| O=C(NCCO)c1cc(O)ccc1O [2,5-Dihydroxy-N-(2-hydroxyethyl)benzamide, reference compound] | 14 | 22 | 22 | – | – | – | – | – | – | – | – | – | – | – | – | – |
| CC1(C)SC2C(Nc3cc(O)c(C(=O)NCCO)cc3O)C(=O)N2C1C(=O)O (stereo not shown) [Example 1] | – | – | – | 16 | 18 | 20 | 12 | 18 | 22 | 24 | antimicrobially active | – | – | – | – | – |
| CC1=C(C(=O)O)N2C(=O)C(Nc3cc(O)c(C(=O)NCCO)cc3O)C2SC1 (stereo not shown) [Example 3] | – | – | – | 20 | 22 | 24 | – | 18 | 22 | 24 | antimicrobially active | 24 | 20 | – | – | – |
| CC1(C)SC2C(NC(=O)C(Nc3c(O)ccc(O)c3C(=O)NCCO)c3ccc(O)cc3)C(=O)N2C1C(=O)O (stereo not shown) [Example 4] | – | – | – | 18 | 22 | 24 | >30 | >30 | >30 | >30 | antimicrobially active | 28 | 30 | 10 | highest antimicrobial activity | 18 |
| CC1(C)SC2C(NC(=O)C(Nc3cc(O)c(C(=O)NCCO)cc3O)c3ccccc3)C(=O)N2C1C(=O)O (stereo not shown) [Example 5] | – | – | – | – | – | – | – | – | – | – | antimicrobially active | – | – | – | – | – |

From US20030180893A1, “Biotransformation of biologically active compounds made of various classes of chemical substance by means of laccase and manganese peroxidase enzymes” (priority 2000, published 2003)
